Source: patent US6747027B1, “Thiol sulfonamide metalloprotease inhibitors” (Pharmacia Corporation, priority 1996, dated 2004)

What was measured:
recombinant human MMP-13 = molecular target: T1, recombinant human MMP-13 (Homo sapiens, UniProt P45452); test: In vitro metalloprotease inhibition, fluorogenic peptide assay (MMP-13); assay type: biochemical
T1 construct: made in house
Description: (§1) Certain of the compounds prepared in the manner described in Examples 1 to 223 were tested for activity by an in vitro assay. Following the procedures of Knight et al., FEBS Lett. 296(3):263 (1992). Briefly, 4-aminophenylmercuric acetate (APMA) or trypsin activated MMPs were incubated with various concentrations of the inhibitor compound at room temperature for 5 minutes (0.02% 2-mercapto-ethanol added to buffer for thiol compounds with 5 minutes or overnight incubation). More specifically, recombinant human MMP-13 and MMP-1 enzymes were prepared in laboratories of the inventors' employer. MMP-13 was expressed in baculovirus as a proenzyme, and purified first over a heparin agarose column and then over a chelating zinc chloride column. The proenzyme was activated by APMA for use in the assay. MMP-1 expressed in transfected HT-1080 was provided by Dr. Howard Welgus of Washington University, St. Louis, Mo. The enzyme was also activated using APMA and was then purified over a hydroxamic acid column.
(§2) The enzyme substrate is a methoxycoumarin-containing polypeptide having the following sequence:
(§3) MCA-ProLeuGlyLeuDpaAlaArgNH^2, wherein MCA is methoxycoumarin and Dpa is 3-(2,4-dinitrophenyl)-L-2,3-diaminopropionyl alanine. This substrate is commercially available from Baychem as product M-1895.
(§4) The buffer used for assays contained 100 mM Tris-HCl, 100 mM NaCl, 10 mM CaCl2 and 0.05 percent polyethyleneglycol(23) lauryl ether at a pH value of 7.5. Assays were carried out at room temperature, and dimethyl sulfoxide (DMSO) at a final concentration of 1 percent was used to dissolve inhibitor compound.
(§5) The assayed inhibitor compound in DMSO/buffer solution was compared to an equal amount of DMSO/buffer with no inhibitor as control using microfluor™ white plates (Dynatech). The inhibitor or control solution was maintained in the plate for 10 minutes and the substrate was added to provide a final concentration of 4 uM.
(§6) In the absence of inhibitor activity, a fluorogenic peptide is cleaved at the gly-leu peptide bond, separating the highly fluorogenic peptide from a 2.4-dinitrophenyl quencher, resulting in an increase of fluorescence intensity (excitation at 328 nm/emmision at 415 nm). Inhibition was measured as a reduction in fluorescent intensity as a function of inhibitor concentration, using a Perkin Elmer L550 plate reader. The IC50 values were calculated from those values. The results are set forth in the Inhibition Table below, reported in terms of IC50 to three significant figures.

recombinant human MMP-1 = molecular target: T2, recombinant human MMP-1 (Homo sapiens, UniProt P03956); test: In vitro metalloprotease inhibition, fluorogenic peptide assay (MMP-1); assay type: biochemical; conditions: recombinant human MMP-1, APMA activated; fluorogenic MCA peptide substrate 4 uM; pH 7.5, room temperature
T2 construct: made in house; host or cells: transfected HT-1080 cells (provided by Dr. Howard Welgus, Washington University)
T2 sequence (P03956 100-469): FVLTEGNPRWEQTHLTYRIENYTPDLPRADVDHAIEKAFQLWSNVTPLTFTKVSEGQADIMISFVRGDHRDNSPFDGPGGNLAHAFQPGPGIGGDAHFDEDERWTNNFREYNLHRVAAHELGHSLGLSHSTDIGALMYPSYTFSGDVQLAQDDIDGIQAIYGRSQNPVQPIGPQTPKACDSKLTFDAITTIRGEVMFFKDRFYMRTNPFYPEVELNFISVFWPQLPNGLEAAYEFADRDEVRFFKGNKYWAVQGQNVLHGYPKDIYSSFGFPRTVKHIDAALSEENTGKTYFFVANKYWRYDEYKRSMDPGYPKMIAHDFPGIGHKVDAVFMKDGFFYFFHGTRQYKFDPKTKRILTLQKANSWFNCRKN
Description: as §1, §2, §3, §4, §5, §6

[1] = recombinant human MMP-13, APMA activated, fluorogenic MCA peptide substrate 4 uM, pH 7.5, room temperature

Row | IC50 (recombinant human MMP-13; [1]) | IC50 (recombinant human MMP-1) | IC50 (recombinant human MMP-13; in vitro, recombinant human MMP-13) | Compound
1 | 220 nM | > 10000 nM |  | CC(=O)SC[C@@H](C)N(CCN1CCOCC1)S(=O)(=O)c1ccc(Oc2ccc(CCC(=O)OC(C)(C)C)cc2)cc1 [Example 115]
2 | 0.7 nM | 400 nM |  | CCCCOc1ccc(S(=O)(=O)N(Cc2ccncc2)[C@@H](CS)C(N)=O)cc1 [Example 175]
3 | 3300 nM | > 10000 nM |  | COc1ccc(S(=O)(=O)N(C)CCc2ccccc2S)cc1 [Example 130]
4 | 50 nM | > 10000 nM |  | CCCCOc1ccc(S(=O)(=O)N[C@@H](CS)C(=O)NCc2ccccc2)cc1 [Example 209]
5 | < 0.5 nM | 2100 nM |  | COc1ccc(-c2ccc(S(=O)(=O)N(C)[C@H](C)CS)cc2)cc1 [Example 124]
6 | > 10000 nM | < 10000 nM |  | C[C@H](CS)NS(=O)(=O)c1ccc(S(C)(=O)=O)cc1 [Example 147]
7 | > 10000 nM | > 10000 nM |  | C[C@H](CS)NS(=O)(=O)c1ccc([N+](=O)[O-])cc1 [Example 192]
8 | 14 nM | 7000 nM |  | C[C@H](CS)N(CCN1CCOCC1)S(=O)(=O)c1ccc(Oc2ccc(CCC(=O)O)cc2)cc1 [Example 118]
9 | 30 nM | > 10000 nM |  | CCCCOc1ccc(S(=O)(=O)N[C@@H](CS)C(=O)NC)cc1 [Example 171]
10 | 200 nM | > 10000 nM |  | CC(=O)SC[C@@H](C(N)=O)N(CCN1CCOCC1)S(=O)(=O)c1ccc(Sc2ccccc2)cc1 [Example 216]
11 | 23.5 nM | 2000 nM |  | CCCCOc1ccc(S(=O)(=O)N[C@@H](CS)C(=O)NCC(=O)O)cc1 [Example 179]
12 | 4200 nM | > 10000 nM |  | C[C@H](CSC(=O)C(C)(C)C)N(CCN1CCOCC1)S(=O)(=O)c1ccc(Sc2ccccc2)cc1 [Example 133]
13 | < 0.1 nM | 70 nM |  | COc1ccc(-c2ccc(S(=O)(=O)N(CCN3CCOCC3)[C@@H](CS)C(N)=O)cc2)cc1 [Example 131]
14 | 1.1 nM | 5000 nM |  | CCCCCc1ccc(S(=O)(=O)N(CCN2CCOCC2)[C@@H](CS)C(N)=O)cc1 [Example 128]
15 | 115 nM | > 10000 nM |  | COc1cccc(-c2ccc(S(=O)(=O)N(C)[C@H](C)CS)cc2)c1 [Example 123]
16 | 15 nM | 8000 nM |  | C[C@H](CS)N(CCN1CCOCC1)S(=O)(=O)c1ccc(Oc2ccc(CCC(=O)O)cc2)cc1 [Example 117]
17 | 880 nM | > 10000 nM |  | CCCCOc1ccc(S(=O)(=O)N[C@@H](CS)C(=O)NC(C)C)cc1 [Example 166]
18 | 3.3 nM | 7000 nM |  | CCCCOc1ccc(S(=O)(=O)N[C@@H](CS)C(N)=O)cc1 [Example 201]

More lines, now with the values behind:

Row | Compound | IC50 (recombinant human MMP-13; [1]) | IC50 (recombinant human MMP-1) | IC50 (recombinant human MMP-13; in vitro, recombinant human MMP-13)
19 | CCOc1ccc(S(=O)(=O)N(C)[C@H](C)CS)cc1 [Example 38C, N-(2-Mercapto-1R-methylethyl)-N-methyl-4-ethoxybenzenesulfonamide] | 31 nM | 2500 nM | 
20 | C[C@H](CS)NS(=O)(=O)c1ccc(C#N)cc1 [Example 76, N-(2-mercapto-1R-methylethyl)-4-cyanobenzenesulfonamide] | 8800 nM | 3500 nM | 
21 | COC(=O)[C@H](CSSC[C@@H](C(=O)OC)N(C)S(=O)(=O)c1ccc(OC)cc1)N(C)S(=O)(=O)c1ccc(OC)cc1 [Example 59] | 13 nM | 1000 nM | 
22 | COc1ccc(S(=O)(=O)N2CCC(S)C2)cc1 (stereo not shown) [Example 26, 1-[(4-Methoxyphenyl)sulfonyl]-3-mercaptopyrrolidine] | 250 nM | > 10000 nM | 
23 | CC(=O)Nc1ccc(S(=O)(=O)N[C@H](C)CS)cc1 [Example 84, N-(2-mercapto-1R-methylethyl)-4-N-acetylsulfanilamide] | > 10000 nM | > 10000 nM | 
24 | C[C@H](CS)NS(=O)(=O)c1ccc(Sc2ccccc2)cc1 [Example 101] | 30 nM | > 10000 nM | 
25 | NC(=O)[C@H](CS)NS(=O)(=O)c1ccc(I)cc1 [Example 95, N-(4-Iodophenyl)sulfonyl-L-cysteine-NH2] | 20 nM | 800 nM | 
26 | C[C@H](CS)N(C)S(=O)(=O)c1ccc(Sc2ccccc2)cc1 [Example 41C, N-(2-Mercapto-1R-methylethyl)-N-methyl-4-(thiophenyl)benzenesulfonamide] | 1.8 nM | > 10000 nM | 2 nM
27 | COCCOc1ccc(S(=O)(=O)N(CCN2CCOCC2)[C@H](C)CS)cc1 [Example 114] | 45 nM | > 10000 nM | 
28 | N-(2-mercapto-1R-methylethyl)-4-methylbenzenesulfonamide [Example 68] | 1720 nM | > 10000 nM | 
29 | COc1ccc(S(=O)(=O)N(Cc2ccccc2)C(CS)CC(C)C)cc1 (racemic) [Example 29F, N-[1-(Mercaptomethyl)-3-methylbutyl]-N-(phenylmethyl)-4-methoxybenzenesulfonamide] | 1800 nM | 8000 nM | 
30 | COc1ccc(S(=O)(=O)N(Cc2ccccc2)[C@H](C)CS)cc1 [Example 12C, N-(2-Mercapto-1R-methylethyl)-N-(phenylmethyl)-4-methoxybenzenesulfonamide] | 38.5 nM | 1300 nM | 
31 | COc1ccc(S(=O)(=O)N2CCCC2CS)cc1 (stereo not shown) [Example 28, 1-[(4-Methoxyphenyl)sulfonyl]pyrrolidine-2-methanethiol] | 800 nM | > 10000 nM | 
32 | C[C@H](CS)N(C)S(=O)(=O)c1ccc(Oc2ccccc2)cc1 [Example 40E, N-(2-Mercapto-1R-methylethyl)-N-methyl-4-(phenoxy)benzenesulfonamide] | 0.61 nM | 309 nM | 
33 | C[C@H](CS)NS(=O)(=O)c1ccccc1 [Example 82, N-(2-mercapto-1R-methylethyl)-benzenesulfonamide] | 1200 nM | > 10000 nM | 
34 | COc1ccc(S(=O)(=O)N(CCS)Cc2ccccc2)cc1 [Example 7C, N-(2-Mercaptoethyl)-N-(phenylmethyl)-4-methoxybenzenesulfonamide] | 300 nM | 4000 nM | 
35 | CCCCCc1ccc(S(=O)(=O)N(C)[C@H](C)CS)cc1 [Example 53, N-(2-Mercapto-1R-methylethyl)-N-methyl-4-(n-pentyl)benzenesulfonamide] | 11 nM | > 10000 nM | 
36 | CCCCOc1ccc(S(=O)(=O)N(Cc2ccccc2)[C@H](C)CS)cc1 [Example 17C] | 260 nM | > 10000 nM | 
37 | C[C@H](CS)N(Cc1ccccc1)S(=O)(=O)c1ccc2c(c1)OCO2 [Example 21C, N-(2-Mercapto-1R-methylethyl)-N-(phenylmethyl)-5-(1,3-benzodioxol-5-yl)sulfonamide] | 200 nM | 7000 nM | 
38 | C[C@H](CS)N(CCN1CCOCC1)S(=O)(=O)c1ccc(Oc2ccccc2)cc1 [Example 113] | 0.25 nM | 125 nM | 
39 | C[C@H](CS)NS(=O)(=O)c1ccc(Br)cc1 [Example 65, N-(2-mercapto-1R-methylethyl)-4-bromobenzenesulfonamide] | 445 nM | 1000 nM | 
40 | N-(2-mercapto-1R-methylethyl)-4-n-propyl)benzenesulfonamide [Example 70] | 440 nM | > 10000 nM | 
41 | C[C@H](CS)NS(=O)(=O)c1ccc(N=Nc2ccccc2)cc1 [Example 89, N-(2-mercapto-1R-methylethyl)-4-phenylazobenzenesulfonamide] | 90 nM | > 10000 nM | 
42 | COc1ccc(S(=O)(=O)N(Cc2ccccc2)[C@H](C)CS)cc1 (racemic) [Example 56, N-(2-Mercapto-1R,S-methylethyl)-N-phenylmethyl-4-methoxybenzenesulfonamide benzenesulfonamide] | 67.5 nM | 2000 nM | 
